Reference: patent US20220264923A1, “Taste Modifying Product” (Firmenich SA, priority 2011, published 2022)

Experiment: Umami effect of pure amide in pure water, panel versus MSG
Format: in vivo
Conditions: amide at 20ppm in mineral water vs 0.05% MSG; RUI=(umami intensity of the amide)/(umami intensity of MSG)*10; average of 5-10 trained panelists
Protocol: The amides were evaluated at 20ppm in mineral water in comparison with 0.05% monosodium glutamate (MSG). […] The Relative umami intensity (RUI) was calculated as follows: […] The following table gives the average of the notes obtained from all panelists.

| SMILES | Relative umami intensity (RUI) |
| --- | --- |
| COc1ccc(CCNC(=O)/C=C/c2ccc(OC)c(OC)c2)cc1 [Amide 1, (E)-3-(3,4-dimethoxyphenyl)-N-(4-methoxyphenethyl)acrylamide] | 5.6 |
| COc1ccc(/C=C/C(=O)NCCc2ccccc2)cc1OC [Amide 2] | 3.8 |
| COc1ccc(/C=C/C(=O)NCCc2ccc(OC)c(OC)c2)cc1OC [Amide 3] | 3.3 |
| COc1cccc(CCNC(=O)/C=C/c2ccc(OC)c(OC)c2)c1 [Amide 4, (E)-3-(3,4-dimethoxyphenyl)-N-(3-methoxyphenethyl)acrylamide] | 10.2 |
| COc1ccccc1CCNC(=O)/C=C/c1ccc(OC)c(OC)c1 [Amide 5] | 3.2 |
| COc1cc(CCNC(=O)/C=C/c2ccc(OC)c(OC)c2)cc(OC)c1 [Amide 6] | 3.7 |
| CCOc1cccc(CCNC(=O)/C=C/c2ccc(OC)c(OC)c2)c1 [Amide 7, (E)-3-(3,4-dimethoxyphenyl)-N-(3-ethoxyphenethyl)acrylamide] | 9.8 |
| CCCOc1cccc(CCNC(=O)/C=C/c2ccc(OC)c(OC)c2)c1 [Amide 8, (E)-3-(3,4-dimethoxyphenyl)-N-(3-propoxyphenethyl)acrylamide] | 9.9 |
| COc1ccc(/C=C/C(=O)NCCc2ccc(OC(C)C)cc2)cc1OC [Amide 9, (E)-3-(3,4-dimethoxyphenyl)-N-(4-isopropoxy-phenethyl)acrylamide] | 6.5 |
| CCc1ccc(CCNC(=O)/C=C/c2ccc(OC)c(OC)c2)cc1 [Amide 10, (E)-3-(3,4-dimethoxyphenyl)-N-(4-ethylphenethyl)acrylamide] | 11.5 |
| COc1ccc(/C=C/C(=O)NCCc2ccc(C)c(C)c2)cc1OC [Amide 11, (E)-3-(3,4-dimethoxyphenyl)-N-(3,4-dimethylphenethyl)acrylamide] | 13.3 |
| COc1ccc(/C=C/C(=O)NCCc2ccc(C(C)C)cc2)cc1OC [Amide 12, (E)-3-(3,4-dimethoxyphenyl)-N-(4-isopropylphenethyl)acrylamide] | 5.9 |
| COc1ccc(/C=C/C(=O)NCCc2ccc(OC)c(OC)c2)cc1 [Amide 14] | 3.8 |
| COc1ccc(/C=C/C(=O)NCCc2cccc(C)c2)cc1OC [Amide 17, (E)-3-(3,4-dimethoxyphenyl)-N-(3-methylphenethyl)acrylamide] | 12.1 |
